Assay results as given in US20100168054A1, “Functionalized Beta 1,6 Glucosamine Disaccharides and Process for Their Preparation” (OM PHARMA, priority 2006, published 2010).

Assays:
[1] = system: human peripheral blood mononuclear cells (PBMC); experiment: IL-6 secretion by human PBMC (ELISA); type: cell-based; settings: for IL6: 24 h
Procedure: (§1) Peripheral blood from healthy donors (Centre de transfusion, Hôpital Universitaire, Geneva) was centrifuged to get the buffy coat. The buffy coat was mixed with Hanks' balanced saline solution (HBSS, Sigma, Buchs, Switzerland), layered over Ficoll Paque Plus (Amersham Pharmacia) to 1.077 g/mL and centrifuged (2800 rpm, 20° C., 25 min). Cells harvested from the interphase were washed twice in HBSS at 800 rpm for 15 min at room temperature and the pelleted cells were resuspended in HBSS. The cell counts were performed using a Neubauer cell. All cell cultures were performed in RPMI-1640 medium supplemented with penicillin (100 U/mL), streptomycin (100 μg/mL), L-glutamine (2 mmol/L) and 10% fetal calf serum (FCS), all obtained from Sigma. For in vitro stimulation, the cells were cultured at a concentration of 1×10^6 viable cells/well.
(§2) PBMC were incubated at 37° C. and under 5% CO2 atmosphere with the controls (see below) and with the products of the invention at 1, 5, and 20 μg/mL for IL-6, and at 0.2, 2, and 20 μg/mL for TNF-α secretion. Medium: RPMI alone.
(§3) The surpernatants of the cultures were harvested after 24 h and the concentration of IL-6 and TNF-α were measured by an enzyme-linked immunosorbent assay (ELISA) (Human IL-6 and TNF-α ELISA Set, BD OptEIA, San Diego, USA), according to the manufacturer instructions. The detection limits were 10 and 8 pg/mL respectively.
PBMC are incubated at 37° C. and under 5% CO2 atmosphere with the products of the invention.
The supernatants of the cultures are harvested after 24 h and the concentration of IL-6 was measured by an enzyme-linked immunosorbent assay (ELISA) (Human IL-6 ELISA Set, BD OptEIA, San Diego, USA), according to the manufacturer instructions. The detection limit was 10 pg/mL.

[2] = system: human peripheral blood mononuclear cells (PBMC); experiment: TNF-α secretion by human PBMC (ELISA); type: cell-based; settings: 24 h
Procedure: as §1, §2, §3

[3] = system: THP1-Blue cells (express naturally both TLR2 and TLR4); experiment: THP1-Blue NF-κB/AP-1-inducible SEAP reporter; type: cell-based, human; settings: for Optical density read at 625 nm, mean of duplicates: 48 h
Procedure: A first series of experiment was performed on THP-1 cells, which express naturally both TLR2 and TLR4. THP-1 cells are human peripheral blood monocytic cells. Monocytes play a key role in innate immunity and express most TLRs at various levels. As for the primary cells, THP-1 cells activate NF-κB and other transcription factors in response to TLR ligands
To facilitate analysis of TLR response in monocytes, InvivoGen (Toulouse, France) provides THP-1 clones stably transfected with an NF-κB-inducible reporter system, called THP1-Blue™. THP-1 Blue cells were stably transfected with a reporter plasmid expressing a secreted embryonic alkaline phosphatase (SEAP) gene under the control of a promoter inducible by several transcription factors such as NF-κB and AP-1. Upon TLR stimulation, THP1-Blue™ cells activate transcription factors and subsequently the secretion of SEAP which is easily detectable when using QUANTI-Blue\u2122a medium that turns purple/blue in the presence of SEAP.
The cells were stimulated with the controls and compounds of the invention according to manufacturer's instructions. Results: Increased OD at 625 Nm after 48 Hours: The results for the controls (negative=LPS K12CD25 ultrapure, a TLR4 agonist; and PAM3CSK4=positive, a TLR2 agonist) are provided in the table below. The results (expressed as OD of arbitrary units) show the mean values (from duplicate measures) of Optical density read at 625 nm, 48 h after stimulation at 37° C. with the controls (up to 1000 ng/ml): […]

TLR4 = target: T1, TLR4 (Homo sapiens, UniProt O00206+Q9Y6Y9); experiment: HEK-MD2-TLR4-CD14 IL-8 secretion; type: cell-based; settings: 24 h
T1 construct: expressed in transfected cells; host or cells: HEK293
T1 sequence (O00206 24-839): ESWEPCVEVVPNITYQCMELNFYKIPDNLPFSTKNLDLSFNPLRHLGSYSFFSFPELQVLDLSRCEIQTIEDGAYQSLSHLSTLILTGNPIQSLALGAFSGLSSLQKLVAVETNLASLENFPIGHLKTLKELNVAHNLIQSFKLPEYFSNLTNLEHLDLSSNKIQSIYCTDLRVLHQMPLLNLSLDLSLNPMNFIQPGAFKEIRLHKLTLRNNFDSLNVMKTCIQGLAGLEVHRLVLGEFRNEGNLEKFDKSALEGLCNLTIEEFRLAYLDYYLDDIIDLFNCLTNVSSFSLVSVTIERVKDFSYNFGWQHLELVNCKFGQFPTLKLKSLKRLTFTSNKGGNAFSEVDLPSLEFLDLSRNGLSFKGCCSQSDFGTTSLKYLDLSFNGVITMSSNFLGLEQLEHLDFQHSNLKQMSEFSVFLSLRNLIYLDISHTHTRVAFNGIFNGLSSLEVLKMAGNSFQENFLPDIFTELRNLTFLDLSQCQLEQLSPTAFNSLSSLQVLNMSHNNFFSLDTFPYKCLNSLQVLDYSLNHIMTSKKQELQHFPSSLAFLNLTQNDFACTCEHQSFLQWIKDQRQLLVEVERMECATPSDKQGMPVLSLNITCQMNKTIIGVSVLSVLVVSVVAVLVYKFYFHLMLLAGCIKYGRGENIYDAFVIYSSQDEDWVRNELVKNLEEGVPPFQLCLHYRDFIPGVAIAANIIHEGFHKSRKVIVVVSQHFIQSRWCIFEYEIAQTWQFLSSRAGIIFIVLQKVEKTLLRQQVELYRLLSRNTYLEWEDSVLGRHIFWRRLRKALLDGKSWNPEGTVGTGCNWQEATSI
T1 sequence (Q9Y6Y9 17-160 limits assumed): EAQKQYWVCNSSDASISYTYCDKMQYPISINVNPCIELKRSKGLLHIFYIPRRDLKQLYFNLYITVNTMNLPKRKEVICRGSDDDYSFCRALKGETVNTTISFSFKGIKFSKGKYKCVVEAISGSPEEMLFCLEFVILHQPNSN
Description: The HEK293 cell line was chosen for its null or low basal expression of the TLR genes. These cells enable efficient monitoring of TLR activity using ELISA analysis such as IL-8 titration or reporter-based systems that monitor TLR-induced NF-κB activation. HEK-TLR2 cells (Invivogen, Toulouse, France) are engineered HEK293 cells stably transfected with multiple genes from the TLR2 pathway that include TLR2 and genes participating in the recognition or involved in the signaling cascade. These cells secrete IL-8 after TLR2 stimulation. The experiments were performed according to manufacturers' instructions. Briefly, 2×10^4 cells/well (200 ul RPMI) are incubated at 37° C. during 3 days (5% CO2). The medium is removed, and 90 ul RPMi+5% FCS is added to the wells Then the agonists and controls are added (10 ul/well). The cells return to the incubator for 24 hours. The supernatants are collected and the IL-8 ELISA is performed according to manufacturer's instructions
HEK-MD2-TLR4-CD14 are highly sensitive to LPS. They were obtained by stable transfection of HEK293 cells with the TLR4, MD2 and CD14 genes and an NF-κB-inducible reporter system. They secrete IL-8. We used the same experimental procedure as for the other HEK cell lines described above.

CCCCCCCCCCCC(=O)O[C@H](CCCCCCCCCCC)CC(=O)N[C@H]1[C@H](OC[C@H]2O[C@H](OCC(O)CO)[C@H](NC(=O)C[C@H](O)CCCCCCCCCCC)[C@@H](O)[C@@H]2O)O[C@H](CO)[C@@H](OP(=O)(O)O)[C@@H]1O (stereo partly drawn) [compound 19, 2,3-Dihydroxypropyl-2-Deoxy-6-O-[2-deoxy-4-O-(dihydroxyphosphoryl)-2-[(R)-3-dodecanoyloxytetradecanoylamino]-β-D-glucopyranosyl]-2-[(R)-3-hydroxytetradecanoylamino]-α-D-glucopyranoside]
IL6 ([1]; 1 μg/ml): 44.5 pg/mL | IL6 ([1]; 5 μg/ml): 95.9 pg/mL | IL6 ([1]; 20 μg/ml): 199.1 pg/mL | IL-6 secretion (in words) ([1]; 1, 5, 20 μg/ml): able to induce IL-6 secretion | TNF-α ([2]; 0.2 μg/ml): 9.2 pg/mL | TNF-α ([2]; 2 μg/ml): 5.1 pg/mL | TNF-α ([2]; 20 μg/ml): 11.2 pg/mL | activation of THP-1 cells (in words) [3]: good activators of THP-1 cells | Optical density read at 625 nm, mean of duplicates ([3]; 14 ng/ml): 0.15 OD | Optical density read at 625 nm, mean of duplicates ([3]; 41 ng/ml): 0.13 OD | Optical density read at 625 nm, mean of duplicates ([3]; 124 ng/ml): 0.17 OD | Optical density read at 625 nm, mean of duplicates ([3]; 370 ng/ml): 0.24 OD | Optical density read at 625 nm, mean of duplicates ([3]; 1111 ng/ml): 0.37 OD | Optical density read at 625 nm, mean of duplicates ([3]; 3333 ng/ml): 0.58 OD | Optical density read at 625 nm, mean of duplicates ([3]; 10000 ng/ml): 0.77 OD | IL-8 secretion, mean (TLR4; 14 ng/ml): 1.69 pg/mL | IL-8 secretion, mean (TLR4; 41 ng/ml): 1.64 pg/mL | IL-8 secretion, mean (TLR4; 124 ng/ml): 1.56 pg/mL | IL-8 secretion, mean (TLR4; 370 ng/ml): 1.67 pg/mL | IL-8 secretion, mean (TLR4; 1111 ng/ml): 1.73 pg/mL | IL-8 secretion, mean (TLR4; 3333 ng/ml): 1.88 pg/mL | IL-8 secretion, mean (TLR4; 10000 ng/ml): 1.96 pg/mL
